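Step 1: Grow cells in 96-well plates. Step 2: Expose to compound for 48 hours at 5 concentrations. Step 3: Interpolate endpoints linearly; if unreached, use highest concentration. At the TGI there is no net growth.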

Among the test systems are HCT-15 colon; IGROV1 ovarian; KM12 colon; OVCAR-5 ovarian; RPMI-8226 leukemia; SF-295 CNS; SR leukemia.
Assay in all cases: DTP human tumour cell line panel, 48 h

Turning to `O=C(NC(=Nc1ccccc1)SCSC(=Nc1ccccc1)NC(=O)c1ccco1)c1ccco1`, the TGI is above 100 µM in the assay with HCT-15 colon; above 100 µM in the assay on IGROV1 ovarian; above 100 µM in the assay with KM12 colon; above 100 µM with OVCAR-5 ovarian; above 100 µM in the assay with RPMI-8226 leukemia; 78.4 µM with SF-295 CNS.

Consider `O=C(Cc1ccccc1[N+](=O)[O-])C(CO)c1ccccc1[N+](=O)[O-]` (configuration not stated), for which the concentration for total growth inhibition (TGI) in the assay on HCT-15 colon, in the assay with IGROV1 ovarian, in the assay on KM12 colon, with OVCAR-5 ovarian, with RPMI-8226 leukemia and with SF-295 CNS was above 100 µM each time.

As to `Nc1nc(N)c(CCCCc2ccccc2)c(C=O)n1`, the TGI in the assay on HCT-15 colon is 45.4 µM; in the assay with IGROV1 ovarian, 38.1 µM; with KM12 colon, 40.8 µM; in the assay with OVCAR-5 ovarian, above 100 µM; with RPMI-8226 leukemia, 41.2 µM; with SF-295 CNS, 64.7 µM.

For the compound `COc1ccc2c(c1)[n+]([O-])c(-c1cccc(Cl)c1)c(N)[n+]2[O-]`, the TGI in the assay on IGROV1 ovarian, in the assay with KM12 colon, with OVCAR-5 ovarian, in the assay with SF-295 CNS and with SR leukemia was above 100 µM in each case.

As to `O=[N+]([O-])c1cc(-c2nc(=S)[nH][nH]2)ccc1O`, the total growth inhibition concentration (TGI) with HCT-15 colon was 31 µM; in the assay with IGROV1 ovarian it was above 100 µM; with KM12 colon, above 100 µM; in the assay on OVCAR-5 ovarian, above 100 µM; in the assay on SF-295 CNS it was above 100 µM.

In the case of `O=C(CCC(=O)Nc1ccc(Cl)c(Cl)c1)CC(=O)c1ccc2ccccc2c1`, the TGI with HCT-15 colon, in the assay with IGROV1 ovarian, in the assay on KM12 colon, with OVCAR-5 ovarian, in the assay on RPMI-8226 leukemia and in the assay on SF-295 CNS was above 100 µM each time.

As to `COc1ccc2c(c1)Oc1cc(O)ccc1[C@H]2c1ccccc1C(=O)NC(C)c1ccccc1` (some centres not stated), the TGI stood at 35.5 µM with HCT-15 colon; 31.5 µM with IGROV1 ovarian; 36.5 µM in the assay on KM12 colon; 29.4 µM in the assay with OVCAR-5 ovarian; 23.6 µM with RPMI-8226 leukemia; 25.9 µM with SF-295 CNS.

As for `O=C(O)CN(c1ccccc1)S(=O)(=O)c1cccc([N+](=O)[O-])c1`, the TGI with HCT-15 colon, with IGROV1 ovarian, in the assay with KM12 colon, in the assay on OVCAR-5 ovarian, in the assay on RPMI-8226 leukemia and in the assay on SF-295 CNS was above 100 µM in each case.

For `CN1C(=O)CC2(C)c3cc(O)cc(Br)c3N(C)C12` (configuration not stated), the TGI in the assay on HCT-15 colon, in the assay on IGROV1 ovarian, with KM12 colon, with OVCAR-5 ovarian and in the assay on SF-295 CNS was above 100 µM throughout.

Take `CC(C)(C)N/N=C(\C(=O)Nc1cccc(Cl)c1)C1C(=O)Nc2ccccc2S1=O` (configuration not stated): the TGI in the assay on HCT-15 colon, in the assay with IGROV1 ovarian, in the assay on KM12 colon, in the assay with SF-295 CNS and in the assay on SR leukemia was above 100 µM each time.

With `CCc1ccccc1NC(=O)C(=O)C(C#N)c1ccccc1Cl` (configuration not stated), the TGI with IGROV1 ovarian, in the assay on KM12 colon, in the assay on OVCAR-5 ovarian, in the assay with RPMI-8226 leukemia and in the assay on SF-295 CNS was above 100 µM throughout.

In the case of `CC1(C)NC(=O)N(CCCCCCN2C(=O)NC(C)(C)C2=O)C1=O`, the concentration for total growth inhibition (TGI) with HCT-15 colon, in the assay with IGROV1 ovarian, in the assay on KM12 colon, with OVCAR-5 ovarian and in the assay on RPMI-8226 leukemia was above 100 µM each time.

For the compound `CC(=O)c1ccccc1NC(=O)C(=O)C(C(=O)c1ccc2ccccc2c1)C1OC(=O)c2ccccc21` (configuration not stated), the TGI in the assay with HCT-15 colon was 40.1 µM; in the assay with IGROV1 ovarian, 52.6 µM; in the assay with KM12 colon, 52.2 µM; in the assay on OVCAR-5 ovarian, 52.9 µM; with RPMI-8226 leukemia, 52.7 µM.

For `COc1cccc2c1OC1Sc3ccccc3-c3nn(-c4ccccc4)c-2c31` (configuration not stated), the concentration for total growth inhibition (TGI) with IGROV1 ovarian, in the assay on KM12 colon, in the assay with OVCAR-5 ovarian, in the assay with RPMI-8226 leukemia and in the assay on SF-295 CNS was above 100 µM throughout.

As for `N/C=N/S(=O)(=O)c1ccc(NC(=O)COC(=O)c2cccc3c(=O)c4ccccc4[nH]c23)cc1`, the TGI in the assay with HCT-15 colon, in the assay on IGROV1 ovarian, in the assay on KM12 colon, in the assay on RPMI-8226 leukemia and in the assay on SF-295 CNS was above 100 µM throughout.

Consider `COC(=O)Cc1c([C@@]2(C)CCCC(C)(C)C2)ccc2c1C(=O)OC2`, for which the TGI in the assay with HCT-15 colon is 24.1 µM; in the assay with IGROV1 ovarian it was 47.5 µM; with KM12 colon, 30.6 µM; in the assay with RPMI-8226 leukemia, 14.6 µM; in the assay on SF-295 CNS, 26.1 µM.

`COC(=O)[C@H](CC(C)C)NC(=O)[C@H](Cc1ccccc1)N1CC2C=CC1C2` (some centres not stated): the TGI in the assay with HCT-15 colon is above 100 µM; in the assay on IGROV1 ovarian, above 100 µM; in the assay with KM12 colon, above 100 µM; in the assay on OVCAR-5 ovarian, above 100 µM; in the assay with RPMI-8226 leukemia, 79.2 µM; in the assay with SF-295 CNS it was above 100 µM.

As usually defined, the TGI is the concentration at which net growth stops. Read a low TGI as greater sensitivity of the cells.

Values taken from PubChem BioAssay (NCI).
